Data from US20250320299A1, “BISPECIFIC DENDRITIC CELL ENGAGER AND USES THEREOF” (OBI PHARMA, INC., priority 2021, published 2025).

T1: human CRT-ECD protein (OBI Pharma Inc., in-house produced) (human, UniProt P27797 18-417, limits assumed)
T1 construct: extracellular domain; Coated at 200 ng per well for ELISA; also called calreticulin
T1 sequence (looked up): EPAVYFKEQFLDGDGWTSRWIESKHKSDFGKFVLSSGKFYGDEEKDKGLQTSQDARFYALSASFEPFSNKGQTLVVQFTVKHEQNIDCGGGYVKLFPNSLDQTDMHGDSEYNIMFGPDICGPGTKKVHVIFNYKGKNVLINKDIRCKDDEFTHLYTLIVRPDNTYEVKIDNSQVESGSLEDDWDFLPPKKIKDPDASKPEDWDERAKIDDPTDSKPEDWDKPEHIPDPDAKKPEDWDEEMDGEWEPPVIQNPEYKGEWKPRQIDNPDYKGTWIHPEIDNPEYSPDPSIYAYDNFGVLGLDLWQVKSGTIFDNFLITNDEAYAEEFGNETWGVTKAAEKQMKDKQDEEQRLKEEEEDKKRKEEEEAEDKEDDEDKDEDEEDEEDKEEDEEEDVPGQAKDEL


Legend:
[1] = test system: Mouse Pan T cells with co-cultured MutuDC 1940 cells and 4T1 cells; test: T cell proliferation primed by dendritic cell loaded with tumor cell; format: cell-based; details: DCs cocultured with 4T1 cells treated with 100 μM Oxaliplatin, T cells 72 hours
Method: Then, cells were collected and counted. […] Cells were washed and counted. 5-fold Far Red labeled mouse Pan T cells were added to the co-cultured MutuDC 1940 cells and 4T1 cells for another 72 hours. […] Another CD8^+T-cell proliferation was calculated by gating on CD3^+/CD4^− cells and setting a marker that contained at least 98% of cells in unstimulated samples.

[2] = test system: Mouse 4T1 breast cancer cells; test: Exposure of endogenous danger signals (surface CRT, Hsp70) on tumor cells, flow cytometry; format: cell-based; details: 100 μM Oxaliplatin for two days
4T1 breast cancer cells = details: Oxaliplatin 5 mg/kg intravenous, BsAb 20 μg intratumor, days 7, 13 and 20; sacrificed Day 27
Method: 1×10^5 4T1 breast cancer cells was injected through subcutaneous injection (s.c. injection) on the right flank of mice in 100 μL sterile PBS. Five mice of each were randomized into three treatment groups on day 7 following tumor inoculation when the tumor size reached 50 mm^3. […] Tumor length, and width were recorded weekly. Tumor volumes were calculated using the formula: volume (mm^3)=([width]^2×length)/2. Results were shown as arithmetic meantstandard error of the mean (SEM). Statistical comparisons were performed by two-tailed Student's t-test. Significance set of probability “p” was set as the level at *p<0.05, **p<0.01, ***, p<0.001. […] Mice were sacrificed at Day 27.

[3] = test system: MutuDC 1940 cells and 4T1 cells; test: Dendritic cell-mediated phagocytosis of tumor cell; details: 4T1 cells treated with 100 μM Oxaliplatin for two days; untreated 31.03%
Method: Mouse 4T1 breast cancer cells were labeled with CellTrace™ Far Red staining solution (ThermoFisher, Cat #C34564) at 37° C. for 30 minutes and then washed with PBS. Cells were seeded overnight in a 6-well plate. After cultivating overnight, cells were treated or not with 100 μM Oxaliplatin for two days. Then, cells were collected and counted. An equal number of MutuDC 1940 cells and 4T1 cells were mixed and incubated at 37° C. for the indicated time. After treatment, cells were collected and stained with anti-mouse CD11c-BV421 (Biolegend, Cat #117330) antibody at 4° C. for 30 minutes. Cells were washed and centrifuged, then analyzed by FACS CANTOII. 4T1 cell incorporation in MutuDC 1940 cells evaluated as the percentage of CD11c positive for far-red fluorescence incorporation.

[4] = test system: Mouse 4T1 breast cancer cells; test: ATP release to supernatant, CellTiter-Glo Luminescent Assay; format: cell-based; details: 100 μM Oxaliplatin for two days
Method: Furthermore, supernatants were collected and centrifuged then the ATP in the supernatant was determined by CellTiter-Glo® Luminescent Assay (Promega, Cat #G7570). Briefly, an equal volume of the collected supernatants and reagent were mixed and incubated in the dark for 10 minutes at room temperature. The luminescence was determined by a luminometer (MolecularDevice, SpectraMax L).

[5] = target: T1, human CRT-ECD protein (OBI Pharma Inc., …); test: ELISA, antigen coated at 200 ng per well, anti-mouse IgG-HRP detection
[6] = test system: oxaliplatin treated 4T1 cells; test: Cell binding assay (FACS) on oxaliplatin treated tumor cells; parameters: species or system mouse; details: 30 nM antibody

Row | Molecule | proliferation of CD8+ T-cells [1] | surface Hsp70 on live 4T1 cells ([2]; untreated 3.2%) [%] | surface CRT on live 4T1 cells ([2]; untreated 6.5%) [%] | 4T1 tumor growth versus control (4T1 breast cancer cells) | DC-mediated phagocytosis of 4T1 cells by MutuDC 1940 cells (percentage of CD11c positive for far-red) [3] [%] | ATP released to the medium [4] | EC50 [5] [nM] | binding activity on oxaliplatin treated 4T1 cells [6] [%]
1 | O=C1[O][Pt]2([NH][C@@H]3CCCC[C@H]3[NH]2)[O]C1=O [Oxaliplatin] | increased | 11 | 59 | no difference | 43.3 | increased | – | –
2 | α-CRT antibody 5B3-1 (OBI Pharma, Inc.) (antibody, V domains shown, also called Anti-CRT (5B3-1)) VH: EVQLVETGGGLVQPKGSLKLSCAASGFSFNNNAMNWVRQAPGKGLEWVARIRSKTNNYEIYYAESVKDRFTISRDDSQSMLYLQMNNLKTDDTAMYYCVRDYNHVGFVYWGQGTQVTVST VL: DIVMTQTTPSVPVTPGESVSISCRSSKSLLYSNGNTYLYWFLQRPGQSPQLLIYRMSNLASGVPDRFSGSGSGTAFTLRISRVEAEDVGVYYCMQHLEYPFTFGAGTKLELK | – | – | – | – | – | – | 0.407 | 41.2
